Results published in US8883782B2, “Spiro-tetracyclic ring compounds as beta-secretase modulators and methods of use” (Amgen Inc., priority 2010, dated 2014).

Assays:
[1] = test system: Aβ40 in conditioned medium of cells stably expressing Amyloid Precursor Protein (APP); test: In vitro BACE cell-based assay (Aβ40 in conditioned medium, sandwich ELISA); details: Homo sapiens, HEK293, average IC50; read-out: HEK cell assay
How it was run: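 The sandwich ELISA pairs pAb40 capture (3 h, 4 °C) with 6E10 detection (2 h, 4 °C) and a streptavidin-europium TRF read-out. Supernatants come from APP-expressing cells grown in 10% FBS DMEM.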

[2] = molecular target: Beta Secretase enzyme (BACE) (Homo sapiens, UniProt P56817); test: In vitro enzymatic BACE FRET (fluorescence resonance energy transfer) assay; assay type: biochemical; details: average IC50, enzyme assay; read-out: BACE 1 FRET assay
Sequence of Beta Secretase enzyme (BACE) (P56817 46-501, species assumed): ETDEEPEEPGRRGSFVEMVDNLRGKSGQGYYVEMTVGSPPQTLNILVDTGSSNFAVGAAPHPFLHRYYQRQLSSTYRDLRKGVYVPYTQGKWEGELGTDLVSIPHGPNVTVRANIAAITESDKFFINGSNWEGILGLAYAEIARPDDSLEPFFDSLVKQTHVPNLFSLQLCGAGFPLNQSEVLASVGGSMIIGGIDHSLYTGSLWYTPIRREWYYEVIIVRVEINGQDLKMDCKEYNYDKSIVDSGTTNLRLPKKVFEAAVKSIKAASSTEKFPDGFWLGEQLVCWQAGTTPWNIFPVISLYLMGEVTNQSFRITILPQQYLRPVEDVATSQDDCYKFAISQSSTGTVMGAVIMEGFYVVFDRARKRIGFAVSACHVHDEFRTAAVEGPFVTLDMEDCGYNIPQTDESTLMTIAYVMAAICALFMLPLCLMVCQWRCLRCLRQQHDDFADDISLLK
How it was run: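 Acetate buffer (0.05 M, pH 4.2), 10% DMSO final, 100 uM nonionic detergent genapol. Substrate addition (50 nM FRET peptide) initiates; one-hour incubation; Tris raises pH to neutrality before fluorescence measurement.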

IC50 [1] [nM]	IC50 [2] [nM]	SMILES
854	389	CC1(C)CC(c2cnc3c(c2)[C@@]2(COC(N)=N2)c2c(ccc(-c4cccnc4F)c2F)O3)=CCO1 [Example 351, (5S)-3-(2,2-dimethyl-3,6-dihydro-2H-pyran-4-yl)-6-fluoro-7-(2-fluoro-3-pyridinyl)spiro[chromeno[2,3-b]pyridine-5,4′-[1,3]oxazol]-2′-amine]
19.4	2.8	CC1(C)C=C(c2cnc3c(c2)[C@]2(COC(N)=N2)c2c(ccc(-c4cncnc4)c2F)O3)CCO1 [Example 352, (5R)-3-(6,6-dimethyl-3,6-dihydro-2H-pyran-4-yl)-6-fluoro-7-(5-pyrimidinyl)spiro[chromeno[2,3-b]pyridine-5,4′-[1,3]oxazol]-2′-amine]
15.8	1.2	CC1(C)CC(c2cnc3c(c2)[C@]2(COC(N)=N2)c2c(ccc(-c4cncnc4)c2F)O3)=CCO1 [Example 353, (5R)-3-(2,2-dimethyl-3,6-dihydro-2H-pyran-4-yl)-6-fluoro-7-(5-pyrimidinyl)spiro[chromeno[2,3-b]pyridine-5,4′-[1,3]oxazol]-2′-amine]
342	91.8	CC1(C)C=C(c2cnc3c(c2)[C@@]2(COC(N)=N2)c2c(ccc(-c4cncnc4)c2F)O3)CCO1 [Example 354, (5S)-3-(6,6-dimethyl-3,6-dihydro-2H-pyran-4-yl)-6-fluoro-7-(5-pyrimidinyl)spiro[chromeno[2,3-b]pyridine-5,4′-[1,3]oxazol]-2′-amine]
1280	407	CC1(C)CC(c2cnc3c(c2)[C@@]2(COC(N)=N2)c2c(ccc(-c4cncnc4)c2F)O3)=CCO1 [Example 355, (5S)-3-(2,2-dimethyl-3,6-dihydro-2H-pyran-4-yl)-6-fluoro-7-(5-pyrimidinyl)spiro[chromeno[2,3-b]pyridine-5,4′-[1,3]oxazol]-2′-amine]
13.9	0.9	Cn1cc(-c2cnc3c(c2)[C@]2(COC(N)=N2)c2c(ccc(-c4cccnc4F)c2F)O3)cn1 [Example 356, (5R)-6-fluoro-7-(2-fluoro-3-pyridinyl)-3-(1-methyl-1H-pyrazol-4-yl)spiro[chromeno[2,3-b]pyridine-5,4′-[1,3]oxazol]-2′-amine]
2130	1050	Cn1cc(-c2cnc3c(c2)[C@@]2(COC(N)=N2)c2c(ccc(-c4cccnc4F)c2F)O3)cn1 [Example 357, (5S)-6-fluoro-7-(2-fluoro-3-pyridinyl)-3-(1-methyl-1H-pyrazol-4-yl)spiro[chromeno[2,3-b]pyridine-5,4′-[1,3]oxazol]-2′-amine]
24.6	2.6	NC1=N[C@@]2(CO1)c1cc(-c3cnccc3F)ccc1Oc1ncc(C3=CCOCC3)cc12 [Example 358, (5S)-3-(3,6-dihydro-2H-pyran-4-yl)-7-(4-fluoro-3-pyridinyl)spiro[chromeno[2,3-b]pyridine-5,4′-[1,3]oxazol]-2′-amine]
22.4	2.9	CC1(COc2cc3c(cc2F)Oc2ccc(-c4cccnc4F)cc2[C@@]32COC(N)=N2)COC1 [Example 360, (4S)-3′-fluoro-7′-(2-fluoro-3-pyridinyl)-2′-((3-methyl-3-oxetanyl)methoxy)spiro[1,3-oxazole-4,9′-xanthen]-2-amine]
6.1	0.5	NC1=N[C@@]2(CO1)c1cc(-c3cc(Cl)cnc3F)ccc1Oc1cnc(C3=CCOCC3)cc12 [Example 361, (5S)-7-(5-chloro-2-fluoro-3-pyridinyl)-3-(3,6-dihydro-2H-pyran-4-yl)spiro[chromeno[2,3-c]pyridine-5,4′-[1,3]oxazol]-2′-amine]
114	6.3	NC1=N[C@@]2(CO1)c1cc(-c3cc(C4=CCOCC4)cnc3F)ccc1Oc1cnc(C3=CCOCC3)cc12 [Example 362, (5S)-3-(3,6-dihydro-2H-pyran-4-yl)-7-(5-(3,6-dihydro-2H-pyran-4-yl)-2-fluoro-3-pyridinyl)spiro[chromeno[2,3-c]pyridine-5,4′-[1,3]oxazol]-2′-amine]
270	33.7	NC1=N[C@@]2(CO1)c1cc(-c3ccc(F)nc3)ccc1Oc1cnc(C3CCOCC3)cc12 [Example 363, (5S)-7-(6-fluoro-3-pyridinyl)-3-(tetrahydro-2H-pyran-4-yl)spiro[chromeno[2,3-c]pyridine-5,4′-[1,3]oxazol]-2′-amine]
62.5	6.9	Cc1cc(-c2cc3c(cn2)Oc2ccc(-c4cccnc4F)cc2[C@@]32COC(N)=N2)on1 [Example 364, (5S)-7-(2-fluoro-3-pyridinyl)-3-(3-methyl-5-isoxazolyl)spiro[chromeno[2,3-c]pyridine-5,4′-[1,3]oxazol]-2′-amine]
42.4	10.8	Cn1cc(-c2cc3c(cn2)Oc2ccc(-c4ccc(F)nc4)cc2[C@@]32COC(N)=N2)cn1 [Example 365, (5S)-7-(6-fluoro-3-pyridinyl)-3-(1-methyl-1H-pyrazol-4-yl)spiro[chromeno[2,3-c]pyridine-5,4′-[1,3]oxazol]-2′-amine]
361	80.1	Cc1cc(-c2cc3c(cn2)Oc2ccc(-c4ccccc4)cc2[C@@]32COC(N)=N2)on1 [Example 366, (5S)-3-(3-methyl-5-isoxazolyl)-7-phenylspiro[chromeno[2,3-c]pyridine-5,4′-[1,3]oxazol]-2′-amine]
74	13.3	Cn1cc(-c2cc3c(cn2)Oc2ccc(-c4ccccc4)cc2[C@@]32COC(N)=N2)cn1 [Example 367, (5S)-3-(1-methyl-1H-pyrazol-4-yl)-7-phenylspiro[chromeno[2,3-c]pyridine-5,4′-[1,3]oxazol]-2′-amine]
37.9	10.4	CC1(C)C[C@H](c2cc3c(cn2)Oc2ccc(-c4cccnc4)cc2[C@@]32COC(N)=N2)CCO1 [Example 368, (5S)-3-((4R)-2,2-dimethyltetrahydro-2H-pyran-4-yl)-7-(3-pyridinyl)spiro[chromeno[2,3-c]pyridine-5,4′-[1,3]oxazol]-2′-amine]
23.7	3.6	CC1(C)CC(c2cc3c(cn2)Oc2ccc(-c4ccc(F)nc4)cc2[C@@]32COC(N)=N2)=CCO1 [Example 370, (5S)-3-(2,2-dimethyl-3,6-dihydro-2H-pyran-4-yl)-7-(6-fluoro-3-pyridinyl)spiro[chromeno[2,3-c]pyridine-5,4′-[1,3]oxazol]-2′-amine]
10.7	2	CC1(C)CC(c2cc3c(cn2)Oc2ccc(-c4cncc(F)c4)cc2[C@@]32COC(N)=N2)=CCO1 [Example 371, (5S)-3-(2,2-dimethyl-3,6-dihydro-2H-pyran-4-yl)-7-(5-fluoro-3-pyridinyl)spiro[chromeno[2,3-c]pyridine-5,4′-[1,3]oxazol]-2′-amine]
14.9	0.8	CC(C)(C)/C=C/c1cc2c(cn1)Oc1ccc(-c3cncc(F)c3)cc1[C@@]21COC(N)=N1 [Example 372, (5S)-3-((1E)-3,3-dimethyl-1-buten-1-yl)-7-(5-fluoro-3-pyridinyl)spiro[chromeno[2,3-c]pyridine-5,4′-[1,3]oxazol]-2′-amine]
22.8	2.2	NC1=N[C@@]2(CO1)c1cc(-c3cncc(F)c3)ccc1Oc1cnc(-c3cncc(F)c3)cc12 [Example 373, (5S)-3,7-bis(5-fluoro-3-pyridinyl)spiro[chromeno[2,3-c]pyridine-5,4′-[1,3]oxazol]-2′-amine]
